Results reported in PubChem BioAssay AID1902 (Broad Institute, 2009).
Activity calls are given as the source filed them.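 The calls were made as follows: active = EC50 no more than a set limit of log units above the highest dose; inactive = the rest.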

Biological target: S. pyogenes SKKanGAS, kanamycin survival, BacTiterGlo, 6 h
Assay: S. pyogenes SKKanGAS kanamycin growth inhibitors – SKKanGAS strain, luminescence, dose confirmation, streptokinase promoter inhibitor project, dose response (AID 1902);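 also: lower survival reflects blocked streptokinase promoter driving kanamycin resistance gene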

Structure (SMILES) | EC50
O=C(NNC(=S)NC(=O)c1cn(-c2ccccc2)nc1-c1ccccc1)c1ccncc1 | 0.151 µM
Cc1cccc(NC(c2ccc(C)s2)c2ccc3ccc(C)nc3c2O)n1 (stereo unspecified) | 3.9 µM
CC(=O)c1ccc(N2CCC(c3cc(-c4ccc(Cl)cc4Cl)n[nH]3)CC2)c([N+](=O)[O-])c1 | 2.15 µM
O=C(CSC(=S)N1CCCCC1)Nc1nc(-c2ccccc2)c(-c2ccccc2)o1 | 1.76 µM
COCCSc1ccccc1C(=O)N1CCCC(C)C1 (stereo unspecified) | > 15 µM (inactive)
O=C(O)CSCC(=O)N(Cc1ccccc1)c1nc(-c2ccccc2)c(-c2ccccc2)s1 | 1.58 µM
O=C(COc1ccccc1)NNC(=S)NC(=O)c1ccc(Cl)cc1Cl | 0.361 µM
CCN(CC)c1ccc(C=N/C(C#N)=C(\N)C#N)cc1 | > 15 µM (inactive)
CCCc1nc2ccccc2c(C(=O)OCC(=O)Nc2ccc(S(=O)(=O)N3CCOCC3)cc2)c1CC | 7.15 µM
COc1ccc(-c2c(C#N)c(N)nc3sc(C(=O)c4ccccc4)c(N)c23)cc1 | 5.9 µM
CCOC(=O)c1c(NC(=S)N2CCN(C)CC2)sc(C)c1-c1ccccc1 | 6.51 µM
CCOC(=O)c1ccc(-c2ccc3c(=O)c4ccccc4n(C)c3c2)cc1F | 4.15 µM
Cc1nn(Cc2c(Cl)cccc2Cl)c(C)c1NC(=O)c1cn(-c2ccccc2)nc1-c1ccccc1 | 9.33 µM
C[C@H]1[C@H](C)CC[C@]2(C)CC[C@]3(C)C(=CC[C@@H]4[C@@]5(C)CC[C@@H](O)[C@](C)(C(=O)O)[C@@H]5CC[C@]43C)[C@H]12 | 0.997 µM
Cc1ccc(C)c(N2CCN(C(=O)CCCCCn3c(=S)[nH]c4ccc(N5CCOCC5)cc4c3=O)CC2)c1 | 7.93 µM
Cc1cc(C)cc(C(=O)NC2C(=O)N3C(C(=O)O)=C(CSc4nnc(C)s4)CSC23)c1 (stereo unspecified) | 0.38 µM
CC(NS(=O)(=O)OCC(Cl)(Cl)Cl)c1ccc(C(C)(C)C)cc1 (stereo unspecified) | 4.64 µM
CC(C)C1Nc2c(O)cc(Cl)c([N+](=O)[O-])c2C2C=CCC21 (stereo unspecified) | 3.1 µM
O=c1[nH]c(=O)n([C@H]2C[C@H](O)[C@@H](CO)O2)cc1F | 0.689 µM
COc1cccc(N2C(N)=NC(N)=NC2(C)C)c1 | 0.318 µM
C/C(=N\N=C(/N)SC1CC(=O)N(c2ccc(Cl)c(Cl)c2)C1=O)c1cccs1 (stereo unspecified) | 2.13 µM
O=c1[nH]c2ccc(Cl)cc2c(-c2ccccc2)c1N1CCN(c2ccccn2)CC1 | 2.83 µM

Structure (SMILES) | EC50
C=CCSc1nsc(NC(=O)Nc2ccc(F)cc2)n1 | 3.7 µM
O=C(Nc1cccc(S(=O)(=O)Nc2ccc(Cl)cc2)c1)c1cc2c(s1)CCCC2 | 1.3 µM
N#Cc1c(N)nc(Sc2ccc(Cl)cc2)c(C#N)c1-c1ccccc1Cl | 6.03 µM
COC(=O)c1cc(-c2ccc(Br)cc2)c2c(=O)[nH]c(=O)n(C)c2n1 | 1.22 µM
Cc1ccc(C(=O)CC(=O)c2ccccc2C)c(O)c1 | 5.18 µM
O=[N+]([O-])c1ccc(-c2nc(Nc3cccc(O)c3)c3ccccc3n2)cc1 | 10.7 µM
CCOC(=O)c1sc(NC(=O)Nc2ccc(Cl)cc2)cc1C | 10.1 µM
CCn1cnc2c1c(=O)n(CC(=O)Nc1cc(C)on1)c(=O)n2Cc1ccccc1 | > 15 µM (inactive)
COc1ccccc1-n1c(SCC(=O)Nc2ccc(C)cc2)nc(O)cc1=O | 13.6 µM
O=C(Oc1cccc(/C=N/Nc2nc(Nc3ccccc3)nc(N3CCOCC3)n2)c1)c1ccco1 | 2.03 µM
CC(C)Nc1nc(Oc2cccc(Cl)c2Cl)cc(C(F)(F)F)n1 | 5.29 µM
CCC(C(=O)NCCCN1CCCC1=O)n1c2ccccc2c2nc(=O)cc(C)n21 (stereo unspecified) | > 15 µM (inactive)
COCCNC(=O)c1c(NC(=O)c2ccc(Br)o2)n(Cc2ccccc2)c2nc3ccccc3nc12 | 2.44 µM
COc1ccc(NC(=O)C(=O)NNC(=O)C(C)Oc2ccc(Cl)cc2Cl)cc1 (stereo unspecified) | 3.31 µM
CCc1ccc(/C=C2/SC(=S)N(CC(=O)Nc3nc4ccccc4s3)C2=O)cc1 | 2.52 µM
Cc1nn(-c2nc3ccccc3[nH]2)c(N)c1-c1ccc(Cl)cc1 | 1.53 µM
CC(=O)NC(=S)Nc1ccc(NC(=S)NC(=O)/C=C/c2ccco2)cc1 | 8.72 µM
COc1ccc(C(=O)NC(=S)NNC(=O)c2ccccc2C)cc1 | 1.49 µM
Cc1cccc(C(=O)NNC(=O)c2c(O)c3ccccc3n(C)c2=O)c1 | 6.96 µM
COc1ccc2c(c1)c(CC(=O)Nc1cccc(S(N)(=O)=O)c1)c(C)n2C(=O)c1ccc(Cl)cc1 | 3.28 µM
Cc1nn2c(COc3ccc(NC(=O)c4ccccc4Cl)cc3)nnc2c2ccccc12 | 1.63 µM
O=C1C(Nc2ccccc2)=C/C(=N/S(=O)(=O)c2cccs2)c2ccccc21 | 1.33 µM

Structure (SMILES) | EC50
CC(C)c1ccc(OCC(=O)NNC(=S)NC(=O)c2ccco2)c(Br)c1 | < 0.06 µM
O=c1c2c(n3nnnc3n1Cc1ccccc1)-c1ccccc1CC21CCCC1 | 1.67 µM
COc1ccc(C(=O)NC(=S)Nc2ccc(N3CCOCC3)c(Cl)c2)cc1[N+](=O)[O-] | 1.97 µM
CCCCCC(=O)NC(=S)NC1C2CC3CC(C2)CC1C3 (stereo unspecified) | 3.83 µM
CC(C)n1nc(C(=O)Nc2nnc(SCc3c(Cl)cccc3Cl)s2)c2ccccc2c1=O | 1.68 µM
Cc1c(CCOC(=O)C2C3CC4CC(C3)CC2C4)sc[n+]1CC(=O)c1ccc(Br)cc1 (stereo unspecified) | 7.28 µM
CC1(C)S[C@@H]2[C@H](NC(=O)COc3ccccc3)C(=O)N2C1C(=O)OCC1CCCCC1 (stereo partly specified) | 8 µM
Cc1ccc(C2Oc3ccccc3C3=C2C(c2cccs2)n2ncnc2N3)cc1 (stereo unspecified) | 3.76 µM
Cn1cccc1C(=O)Nc1nc(-c2ccccn2)cs1 | 12.4 µM
Cc1cccc(Cn2nc(-n3cccc3)c3c(C)cc(C)nc32)c1 | 6.78 µM
COc1cc(C(=O)NNC(=S)NC(=O)c2ccc(Cl)cc2)cc(OC)c1OC | 0.499 µM
C/C(=N\NC(=O)c1cccc(Br)c1)c1ccccn1 | 0.74 µM
CCn1cc(C(=O)NCc2ccc3c(c2)OCO3)c(=O)c2cc(F)c(N3CCN(C(=O)c4ccco4)CC3)cc21 | 9.9 µM
Cc1noc(C)c1CSCC(=O)Nc1nc2ccc(Oc3ccccc3)cc2s1 | 4.85 µM
C#CCN1C(=O)S/C(=C\c2ccc(-c3ccc(Cl)c(C(=O)O)c3)o2)C1=O | 2.83 µM
O=C(NC(=S)N(CCCCO)C1CCCCC1)c1sc2ccccc2c1Cl | 0.527 µM
COc1ccc(/C=N/NC(=O)c2cc(C(C)(C)C)[nH]n2)cc1COc1ccc(F)cc1F | 7.62 µM
Cc1nc(-n2[nH]c3c(c2=O)CCCC3)[nH]c(=O)c1Cc1ccccc1 | 1.39 µM
O=C(O)c1cccc(N/N=C/C2=C(Cl)c3cc(Cl)ccc3SC2)c1 | 1.77 µM
CCCCCC(=O)Cc1cc(O)cc2c1C(=O)Oc1cc(O)c(C(=O)O)c(CCCCC)c1O2 | 6.67 µM
CCn1cc(CN2CCC(C(=O)Nc3ccc(Oc4cccnc4)cc3)CC2)cn1 | > 15 µM (inactive)
O=c1ccc(N=Nc2ccccc2)ccc1O | 3.51 µM

Structure (SMILES) | EC50
[O-][n+]1cccc2c(Br)cc(Br)c(O)c21 | 0.55 µM
COc1ccc2ccc3c(c2c1)N=C[C@]1(O3)N(C)c2ccccc2C1(C)C | 1.41 µM
Cc1c(C(=O)NNC(=S)NCc2ccc(Cl)cc2)oc2ccccc12 | 2.17 µM
N#C/C(=N\Nc1ccc(S(=O)(=O)N2CCc3ccccc32)cc1)C(N)=S | 11.3 µM
Cn1nnnc1SCC(=O)Nc1nc(-c2ccccc2)c(-c2ccccc2)o1 | 7.27 µM
O=C(N/N=C/c1ccccc1O)c1cccc2ccccc12 | 3.08 µM
CCCCCCCn1c(NC(=O)CC)nc2ccccc21 | 0.342 µM
CC(Oc1ccc(Cl)cc1Cl)C(=O)NC1=NN(c2ccccc2)C(=O)C1 (stereo unspecified) | 2.92 µM
O=[N+]([O-])c1ccc(O)c(-c2cc(C(F)(F)F)nc(-c3ccccc3)n2)c1 | 0.205 µM
COc1ccccc1/C=C/c1ccc2cccc(O)c2n1 | 1.18 µM
Cc1ccc(-c2cc(C(F)F)nc(N3CCC(C)CC3)n2)cc1 | 5.48 µM
CCOC(=O)c1cnn(-c2nc(-c3ccccc3F)cs2)c1C(F)(F)F | 10.9 µM
CCCCCCCCCCCCCCCC[N+](C)(C)CC | 2.19 µM
Cc1ccsc1C(=O)N(c1nc2ccccc2s1)c1c(C)cccc1C | 4 µM
Cc1nc(=S)c2c([nH]1)-c1ccccc1CC21CCCCC1 | 0.945 µM
Cc1nc2ccccc2n1/N=C/c1ccc([N+](=O)[O-])s1 | 2.39 µM
O=C(NNC(=S)NC(=O)c1ccccc1)c1cccc([N+](=O)[O-])c1 | 5.82 µM
C/C(=N\NC(=O)c1ccc(C)cc1)c1c(C)[nH]n(-c2ccccc2)c1=O | 2.15 µM
N=C1/C(=C\c2ccc(-c3cccc(C(=O)O)c3)o2)C(=O)N=C2SC=C(c3ccccc3)N12 | 1.2 µM
C/C(=N/NS(=O)(=O)c1ccc(Cl)cc1)c1cccc(NC(=O)c2ccc(Cl)cc2Cl)c1 | 4.79 µM
COC(=O)C(C)NC(=S)N1CCN(c2c(F)cc3c(=O)c(C(=O)O)cn(C4CC4)c3c2OC)CC1C (stereo unspecified) | 3.31 µM
Cc1nc2c(C(=O)Nc3ccc(N4CCCC(O)C4)cc3)snc2c(=O)[nH]1 (stereo unspecified) | 4.46 µM

Structure (SMILES) | EC50
Cc1ccc(C)c(/C=N/NC(=S)NCCc2ccccc2)c1 | 4.05 µM
O=C(N/N=C/c1ccc([N+](=O)[O-])o1)c1cn(-c2ccccc2)nc1-c1ccc(F)cc1 | 1.16 µM
CC1(C)Oc2ccc3ccc(=O)oc3c2/C(=C/NNC(N)=S)C1=O | 7.51 µM
COc1cc(OC)cc(C(=O)NC(=S)NNC(=O)Cc2cccs2)c1 | 0.716 µM
COc1ccc(/C=N/n2c(-c3cccs3)n[nH]c2=S)cc1 | 14.3 µM
Cc1ccc(C2(c3ccc(C)cc3)CC2C(=O)Nc2ccc([N+](=O)[O-])cc2O)cc1 (stereo unspecified) | 2.15 µM
Cc1cc(C)c2ccc(N)nc2c1O | 3.33 µM
CCc1ccc(/C=C/c2c([N+](=O)[O-])c(=O)n(C)c(=O)n2C)cc1 | 11 µM
CC(=O)NC(c1ccccc1)c1cc(Cl)c2cccnc2c1O (stereo unspecified) | 1.17 µM
CCOc1ccc(NC(=O)CN(C)C(=O)C2CC(=O)N(c3ccc4c(c3)OCCO4)C2)cc1OCC (stereo unspecified) | > 15 µM (inactive)
O=C(CC1SC(=Nc2ccccc2)N(CCc2c[nH]c3ccccc23)C1=O)Nc1ccccc1F (stereo unspecified) | 7.21 µM
Cc1ccc(NC(=S)NC(=O)c2ccc(-c3ccc(Cl)cc3)o2)c(O)c1 | 0.531 µM
FC(F)(F)c1cc(Nc2ccccc2)nc(-c2ccccn2)n1 | 15.2 µM
CC/C(=C/c1ccccc1)c1cccc2[nH]c3c(OC)cccc3c12 | 2.49 µM
CC1(C)CC(=O)C2=C(C1)N=C1c3ccccc3C(=O)C1C2c1ccc(Cl)cc1 (stereo unspecified) | 8.16 µM
COc1ccc(NC(=O)c2cc(-c3cc(C)cc(C)c3O)n[nH]2)cc1Cl | 2.25 µM
CC(C)(C)c1cc(NCCCn2ccnc2)n2ncc(-c3ccc(Cl)cc3)c2n1 | 2.38 µM
Cc1cccc(/C=N/NC(=O)Cc2ccc(Cl)cc2)c1O | 3.53 µM
